Test results taken from publication PMC3597730, “Novel Phenolic Inhibitors of Small/Intermediate-Conductance Ca^2+-Activated K^+ Channels, KCa3.1 and KCa2.3” (PLoS ONE, 2013).
“And” between values parts separate entries of the source, which are not always exact repeats. Equal entries are not always repeated.

Key:
[1] = target: T1, KCa3.1 channels in 3T3 fibroblasts (Mus musculus, UniProt O89109); assay: Whole-cell patch-clamp of KCa3.1 currents in 3T3 fibroblasts; format: cell-based
T1 construct: KCa3.1 channels in 3T3 fibroblasts; endogenous in cells; host or cells: 3T3-L1 mouse embryonic fibroblasts

[2] = target: T2, hKv1.2 (Homo sapiens, UniProt P16389); assay: Whole-cell patch-clamp of cloned hKv1.2; format: cell-based
T2 construct: expressed in transfected cells; host or cells: B82 murine fibroblasts (Methods)

[3] = target: T3, hKCa2.3 (Homo sapiens, UniProt Q9UGI6); assay: Whole-cell patch-clamp of hKCa2.3 in COS7 cells; format: cell-based
T3 construct: expressed in transfected cells; host or cells: COS7

[4] = tested on: 3T3 fibroblasts; assay: Cell proliferation assay (Janus B Green staining); format: cell-based, mouse; settings: 3T3 cells
Experimental: Cell proliferation was spectrophotometrically assessed as described previously with some modifications. Briefly, 3T3 fibroblasts (1500 cells/well) were seeded in 96-well plates (TPP. Switzerland), cultured in DMEM containing 10% FCS (Lonza, Switzerland) with 13b or vehicle (DMSO), and formalin-fixed at days 0,1,2 and 3. To exclude the possibility that DMSO as vehicle affected the cell viability per se, final DMSO concentrations were the same for each concentration of 13b and the controls. Fixed cells were stained for 5 minutes with 50 ul/well of 0.3% Janus B Green dye (Acros Organics, Belgium) at room temperature with constant stirring followed by a de-staining step with water. Dye was eluted with 200 ul/well of 0.5 M HCl of hydrochloric acid and top-read measurements of absorbance were performed in a microplate reader (Sinergy HT, Biotek, USA) at 595 nm.

[5] = tested on: T4, KCa1.1; assay: Whole-cell patch-clamp of KCa1.1 in U251 glioblastoma cells; format: cell-based, human
T4 construct: KCa1.1 in human U251 glioblastoma cells; endogenous in cells; host or cells: U251 glioblastoma cells

[6] = tested on: T5, hERG; assay: Whole-cell patch-clamp of hERG tail currents in HEK293 cells; format: cell-based, human; settings: human, HEK293 cells expressing hERG, pH 7.4; hERG; compound 10 µM; read-out: % of control at 10 µM
T5 construct: expressed in transfected cells; gift of Craig January, University of Wisconsin

[7] = tested on: T6, hERG channels; assay: as above; format: cell-based, human; settings: 13b 1 µM; caffeic acid, flufenamic acid 10 µM (Table S1)
T6 construct: expressed in transfected cells; gift of Craig January, University of Wisconsin

[8] = tested on: mixed KCa3.1 and KCa2.3 currents in PCAEC; assay: Whole-cell patch-clamp of KCa currents in porcine coronary artery endothelial cells; format: cell-based; settings: 50 µM, n = 1

T2 sequence (P16389 whole entry): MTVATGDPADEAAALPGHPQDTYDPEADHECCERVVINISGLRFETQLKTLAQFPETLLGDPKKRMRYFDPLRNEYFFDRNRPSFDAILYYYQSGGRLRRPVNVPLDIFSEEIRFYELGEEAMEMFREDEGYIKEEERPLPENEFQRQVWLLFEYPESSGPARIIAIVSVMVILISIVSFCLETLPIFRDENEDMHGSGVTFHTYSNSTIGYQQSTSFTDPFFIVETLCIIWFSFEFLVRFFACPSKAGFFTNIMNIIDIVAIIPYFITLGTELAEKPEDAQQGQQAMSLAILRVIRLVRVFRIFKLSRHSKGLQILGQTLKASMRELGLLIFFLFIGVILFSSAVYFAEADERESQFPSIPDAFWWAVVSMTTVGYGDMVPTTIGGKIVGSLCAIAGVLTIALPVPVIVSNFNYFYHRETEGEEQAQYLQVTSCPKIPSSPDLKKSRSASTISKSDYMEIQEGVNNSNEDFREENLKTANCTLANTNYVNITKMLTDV
T3 sequence (Q9UGI6 whole entry): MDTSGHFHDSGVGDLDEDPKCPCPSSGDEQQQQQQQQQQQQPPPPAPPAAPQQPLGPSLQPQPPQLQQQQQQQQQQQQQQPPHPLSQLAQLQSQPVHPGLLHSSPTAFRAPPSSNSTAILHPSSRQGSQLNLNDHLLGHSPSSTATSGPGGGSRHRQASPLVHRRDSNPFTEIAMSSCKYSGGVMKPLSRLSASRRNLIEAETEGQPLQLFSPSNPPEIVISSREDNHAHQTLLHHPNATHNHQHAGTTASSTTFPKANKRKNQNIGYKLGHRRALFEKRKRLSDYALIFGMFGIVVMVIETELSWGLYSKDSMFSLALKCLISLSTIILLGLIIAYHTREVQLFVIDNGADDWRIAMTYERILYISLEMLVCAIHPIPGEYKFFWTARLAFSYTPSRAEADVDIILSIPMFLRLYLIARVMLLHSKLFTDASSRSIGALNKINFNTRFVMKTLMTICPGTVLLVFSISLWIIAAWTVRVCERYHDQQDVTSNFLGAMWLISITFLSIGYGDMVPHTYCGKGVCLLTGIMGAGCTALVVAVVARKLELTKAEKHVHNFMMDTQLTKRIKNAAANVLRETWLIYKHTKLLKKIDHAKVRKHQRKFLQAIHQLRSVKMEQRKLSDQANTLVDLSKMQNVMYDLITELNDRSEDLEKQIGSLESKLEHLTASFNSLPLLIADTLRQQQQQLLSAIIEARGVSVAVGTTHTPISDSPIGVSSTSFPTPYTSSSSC

remaining activity at 10 µM ([1]; read-out: KCa3.1 current blocked, % of control): 28 ± 10%
KCa3.1 blocking effect (in words) ([1]; whole-cell, 3T3 fibroblasts, concentrations up to 50 µM as in Table 1): Complete inhibition
EC50 ([1]; whole-cell, 3T3 fibroblasts, read-out: EC50 of KCa3.1 inhibition): 1300 nM and 1000 to 10000 nM
hKv1.2 blocking effect (in words) ([2]; flufenamic acid and caffeic acid 10 and 50 µM, 13c 1 µM): did not block
remaining activity at 10 µM ([2]; hKv1.2, compound 10 µM, read-out: % of control at 10 µM): 100 ± 2%
remaining activity at 50 µM ([2]; hKv1.2, compound 50 µM, read-out: % of control at 50 µM): 97 ± 1%
remaining activity at 10 µM ([3]; COS-7, read-out: % of control at 10 µM): 108 ± 7%
remaining activity at 50 µM ([3]; COS-7, read-out: % of control at 50 µM): 97 ± 1%
KCa2.3 blocking effect (in words) ([3]; micromolar concentrations): no blocking effects
SMILES: O=C(O)/C=C/c1ccc(O)c(O)c1 [Caffeic Acid, (E)-3-(3,4-dihydroxyphenyl)propenoic acid]
change of proliferation vs. vehicle-treated controls ([4]; 25 µM): −27%
change of proliferation vs. vehicle-treated controls ([4]; 50 µM): −56%
KCa1.1 effect (in words) ([5]; U251 glioblastoma cells, 13b 1 µM, caffeic acid 10 µM): no blocking or activating effects
% of control at 10 µM ([5]; hKCa1.1, compound 10 µM): 103 ± 14%
activity at 10 µM [6]: 97 ± 6%
hERG effect (in words) [7]: not blocked
mixed KCa3.1/KCa2.3 current, % of control [8]: 6%
